pEC50: −log10 of the molar value. Read-outs that look alike come from different tables or passages of the source.
System: HBsAg
Experiment: HBsAg assay: inhibition of HBsAg in HepG2.2.15 cells (chemiluminescence immunoassay of supernatant)
Assay type: cell-based, hepatitis B virus
Conditions: HBsAg in supernatant at day 6 after exposure to compound, 0.5% DMSO
How it was run: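 HepG2.2.15 cells treated with serially diluted compounds (0.5% DMSO), medium and compound refreshed after 2–3 days, supernatant harvested at day 6. Secreted HBsAg measured by chemiluminescence immunoassay; EC50 from dose-response curves, with parallel CellTiter-Glo viability at 5,000 cells/well.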

[1] = read-out: sAg EC50, HepG2.2.15 cells
[2] = Hepatitis B virus, HepG2.2.15, 144 h, read-out: sAg EC50, HepG2.2.15 cells

Structure (SMILES) | pEC50 [1] | pEC50 [2]
CO[C@H]1CCN(c2cc(C3CC3c3cnc(-c4ncccn4)nc3)ccc2F)C1 (single isomer, unassigned) [Example 67] | 6.74 | –
CO[C@H]1CCN(c2cc(C3CC3c3cnc(-c4ncccn4)nc3)ccc2F)C1 (single isomer, unassigned) [Example 68] | 7.07 | –
O[C@@H]1CCN(c2cc(C3CC3c3cnc(-c4ncccn4)nc3)ccc2F)C1 (single isomer, unassigned) [Example 69] | – | 6.77
O[C@@H]1CCN(c2cc(C3CC3c3cnc(-c4ncccn4)nc3)ccc2F)C1 (single isomer, unassigned) [Example 70] | 6.57 | –
COc1c(Cl)ccc(C2CC2c2cnc(-c3ncccn3)nc2)c1C (single isomer, unassigned) [Example 71, trans-5-(2-(4-Chloro-3-methoxy-2-methylphenyl)cyclopropyl)-2,2′-bipyrimidine] | 6.70 | –
COc1c(Cl)ccc(C2CC2c2cnc(-c3ncccn3)nc2)c1C (single isomer, unassigned) [Example 72, trans-5-(2-(4-Chloro-3-methoxy-2-methylphenyl)cyclopropyl)-2,2′-bipyrimidine] | 7.05 | –
COc1cc(C2CC2c2cnc(-c3ncccn3)nc2C(C)C)ccc1F (single isomer, unassigned) [Example 74, trans-5-(2-(4-Fluoro-3-methoxyphenyl)cyclopropyl)-4-isopropyl-2,2′-bipyrimidine] | 5.00 | –
COc1cc(C2CC2c2cnc(-c3ncccn3)nc2C(C)C)ccc1F (single isomer, unassigned) [Example 75, trans-5-(2-(4-Fluoro-3-methoxyphenyl)cyclopropyl)-4-isopropyl-2,2′-bipyrimidine] | 5.70 | –
CCc1nc(-c2ncccn2)ncc1C1CC1c1ccc(F)c(OC)c1 (single isomer, unassigned) [Example 76, trans-4-Ethyl-5-(2-(4-fluoro-3-methoxyphenyl)cyclopropyl)-2,2′-bipyrimidine] | 5.70 | –
CCc1nc(-c2ncccn2)ncc1C1CC1c1ccc(F)c(OC)c1 (single isomer, unassigned) [Example 77, trans-4-Ethyl-5-(2-(4-fluoro-3-methoxyphenyl)cyclopropyl)-2,2′-bipyrimidine] | 5.30 | –
COc1cc(C2CC2c2cnc(-c3ncccn3)nc2C2CCCCC2)ccc1F (single isomer, unassigned) [Example 78, trans-4-Cyclohexyl-5-(2-(4-fluoro-3-methoxyphenyl)cyclopropyl)-2,2′-bipyrimidine] | 4.96 | –
COc1cc(C2CC2c2cnc(-c3ncccn3)nc2C2CCCCC2)ccc1F (single isomer, unassigned) [Example 79, trans-4-Cyclohexyl-5-(2-(4-fluoro-3-methoxyphenyl)cyclopropyl)-2,2′-bipyrimidine] | 6.66 | –
COc1cc(C2CC2c2cnc(-c3ncccn3)nc2OC)ccc1F (single isomer, unassigned) [Example 80, trans-5-(2-(4-Fluoro-3-methoxyphenyl)cyclopropyl)-4-methoxy-2,2′-bipyrimidine] | 7.00 | –
COc1cc(C2CC2c2cnc(-c3ncccn3)nc2OC)ccc1F (single isomer, unassigned) [Example 81, trans-5-(2-(4-Fluoro-3-methoxyphenyl)cyclopropyl)-4-methoxy-2,2′-bipyrimidine] | 6.64 | –
Fc1ccc(C2CC2c2cnc(-c3ncccn3)nc2)cc1N1CCC1 (single isomer, unassigned) [Example 82, trans-5-(2-(3-(Azetidin-1-yl)-4-fluorophenyl)cyclopropyl)-2,2′-bipyrimidine] | 6.96 | –
Fc1ccc(C2CC2c2cnc(-c3ncccn3)nc2)cc1N1CCC1 (single isomer, unassigned) [Example 83, trans-5-(2-(3-(Azetidin-1-yl)-4-fluorophenyl)cyclopropyl)-2,2′-bipyrimidine] | 7.46 | –
COc1cc(C2CC2c2cnc(-c3ncccn3)nc2)cc(F)c1F (single isomer, unassigned) [Example 84, trans-5-(2-(3,4-Difluoro-5-methoxyphenyl)cyclopropyl)-2,2′-bipyrimidine] | 6.62 | –
COc1cc(C2CC2c2cnc(-c3ncccn3)nc2)cc(F)c1F (single isomer, unassigned) [Example 85, trans-5-(2-(3,4-Difluoro-5-methoxyphenyl)cyclopropyl)-2,2′-bipyrimidine] | 7.54 | –
COc1cc(C2CC2c2cnc(-c3ncccn3)nc2)c(F)cc1Cl (single isomer, unassigned) [Example 86, trans-5-(2-(4-Chloro-2-fluoro-5-methoxyphenyl)cyclopropyl)-2,2′-bipyrimidine] | – | 6.89
COc1cc(C2CC2c2cnc(-c3ncccn3)nc2)c(F)cc1Cl (single isomer, unassigned) [Example 87, trans-5-(2-(4-Chloro-2-fluoro-5-methoxyphenyl)cyclopropyl)-2,2′-bipyrimidine] | 6.85 | –
COc1cc(C2CC2c2cnc(-c3ncccn3)nc2)c(Cl)cc1Cl (single isomer, unassigned) [Example 88, trans-5-(2-(2,4-Dichloro-5-methoxyphenyl)cyclopropyl)-2,2′-bipyrimidine] | 7.08 | –

Structure (SMILES) | pEC50 [1] | pEC50 [2]
COc1cc(C2CC2c2cnc(-c3ncccn3)nc2)c(Cl)cc1Cl (single isomer, unassigned) [Example 89, trans-5-(2-(2,4-Dichloro-5-methoxyphenyl)cyclopropyl)-2,2′-bipyrimidine] | 6.21 | –
Fc1cc(C2CC2c2cnc(-c3ncccn3)nc2)cc(N2CCCC2)c1Cl (single isomer, unassigned) [Example 90, trans-5-(2-(4-Chloro-3-fluoro-5-(pyrrolidin-1-yl)phenyl)cyclopropyl)-2,2′-bipyrimidine] | – | 7.55
Fc1cc(C2CC2c2cnc(-c3ncccn3)nc2)cc(N2CCCC2)c1Cl (single isomer, unassigned) [Example 91, trans-5-(2-(4-Chloro-3-fluoro-5-(pyrrolidin-1-yl)phenyl)cyclopropyl)-2,2′-bipyrimidine] | 7.85 | –
Fc1cc(C2CC2c2cnc(-c3ncccn3)nc2)cc(N2CCCC2)c1F (single isomer, unassigned) [Example 92, trans-5-(2-(3,4-Difluoro-5-(pyrrolidin-1-yl)phenyl)cyclopropyl)-2,2′-bipyrimidine] | – | 7.62
Fc1cc(C2CC2c2cnc(-c3ncccn3)nc2)cc(N2CCCC2)c1F (single isomer, unassigned) [Example 93, trans-5-(2-(3,4-Difluoro-5-(pyrrolidin-1-yl)phenyl)cyclopropyl)-2,2′-bipyrimidine] | 7.72 | –
CO[C@@H]1CCN(c2cc(C3CC3c3cnc(-c4ncccn4)nc3)ccc2F)C1 (single isomer, unassigned) [Example 94] | – | 6.57
CO[C@@H]1CCN(c2cc(C3CC3c3cnc(-c4ncccn4)nc3)ccc2F)C1 (single isomer, unassigned) [Example 95] | 6.77 | –
CO[C@@H]1CCN(c2cc(C3CC3c3cnc(-c4ncccn4)nc3)cc(F)c2F)C1 (single isomer, unassigned) [Example 96] | 7.03 | –
CO[C@@H]1CCN(c2cc(C3CC3c3cnc(-c4ncccn4)nc3)cc(F)c2F)C1 (single isomer, unassigned) [Example 97] | 7.85 | –
COc1cc(C2CC2c2cnc(-c3ncccn3)nc2)cc(OC)c1Cl (single isomer, unassigned) [Example 98, trans-5-(2-(4-Chloro-3,5-dimethoxyphenyl)cyclopropyl)-2,2′-bipyrimidine] | 6.46 | –
COc1cc(C2CC2c2cnc(-c3ncccn3)nc2)cc(OC)c1Cl (single isomer, unassigned) [Example 99, trans-5-(2-(4-Chloro-3,5-dimethoxyphenyl)cyclopropyl)-2,2′-bipyrimidine] | 5.52 | –
COc1cc(C2CC2c2cnc(-c3ncccn3)nc2)cc(N2CCCC2)c1F (single isomer, unassigned) [Example 100, trans-5-(2-(4-Fluoro-3-methoxy-5-(pyrrolidin-1-yl)phenyl)cyclopropyl)-2,2′-bipyrimidine] | 7.21 | –
COc1cc(C2CC2c2cnc(-c3ncccn3)nc2)cc(N2CCCC2)c1F (single isomer, unassigned) [Example 101, trans-5-(2-(4-Fluoro-3-methoxy-5-(pyrrolidin-1-yl)phenyl)cyclopropyl)-2,2′-bipyrimidine] | 6.10 | –
CO[C@H]1CCN(c2cc(C3CC3c3cnc(-c4ncccn4)nc3)cc(F)c2F)C1 (single isomer, unassigned) [Example 102] | 7.54 | –
CO[C@H]1CCN(c2cc(C3CC3c3cnc(-c4ncccn4)nc3)cc(F)c2F)C1 (single isomer, unassigned) [Example 103] | 8.10 | –
O[C@@H]1CCN(c2cc(C3CC3c3cnc(-c4ncccn4)nc3)cc(F)c2F)C1 (single isomer, unassigned) [Example 104] | – | 7.11
O[C@@H]1CCN(c2cc(C3CC3c3cnc(-c4ncccn4)nc3)cc(F)c2F)C1 (single isomer, unassigned) [Example 105] | 7.01 | –
O[C@H]1CCN(c2cc(C3CC3c3cnc(-c4ncccn4)nc3)cc(F)c2F)C1 (single isomer, unassigned) [Example 106] | 7.07 | –
O[C@H]1CCN(c2cc(C3CC3c3cnc(-c4ncccn4)nc3)cc(F)c2F)C1 (single isomer, unassigned) [Example 107] | 7.68 | –
Fc1c(Cl)cc(C2CC2c2cnc(-c3ncccn3)nc2)cc1N1CCCC1 (single isomer, unassigned) [Example 108, trans-5-(2-(3-Chloro-4-fluoro-5-(pyrrolidin-1-yl)phenyl)cyclopropyl)-2,2′-bipyrimidine] | 7.11 | –
Fc1c(Cl)cc(C2CC2c2cnc(-c3ncccn3)nc2)cc1N1CCCC1 (single isomer, unassigned) [Example 109, trans-5-(2-(3-Chloro-4-fluoro-5-(pyrrolidin-1-yl)phenyl)cyclopropyl)-2,2′-bipyrimidine] | 7.60 | –
